# Data published in publication PMC8429728, “TNK1 is a ubiquitin-binding and 14-3-3-regulated kinase that can be targeted to block tumor growth” (Nature Communications, 2021).
# Read-outs that look alike come from different tables or passages of the source.
# How the values were obtained:
# Assay in all cases: biochemical
# Design in all cases: Reaction Biology 371-kinase panel at Km ATP, per cent enzyme activity relative to DMSO, single dose in duplicate
# Settings in all cases: duplicate measurements, Km ATP
# KHS/MAP4K5 = KHS/MAP4K5 (Homo sapiens, UniProt Q9Y4K4)
# Procedure, shortened: (§1)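 Compound screened at 300 nM in vitro across a 371-kinase panel. Enzyme activity expressed as % of DMSO controls. IC50 values came from sigmoidal variable-slope dose-response fits with the bottom fixed at 0.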
# CK1G3 = target: T1, CK1G3 (Homo sapiens, UniProt Q9Y6M4)
# T1 construct: gene CSNK1G3
# Procedure, shortened: as §1
# PAK5 = PAK5 (Homo sapiens, UniProt Q9P286)
# Procedure, shortened: as §1
# ALK6/BMPR1B = ALK6/BMPR1B (Homo sapiens, UniProt O00238)
# Procedure, shortened: as §1
# COT1/MAP3K8 = COT1/MAP3K8 (Homo sapiens, UniProt P41279)
# Procedure, shortened: as §1
# IRAK4 = IRAK4 (Homo sapiens, UniProt Q9NWZ3)
# Procedure, shortened: as §1
# CLK4 = CLK4 (Homo sapiens, UniProt Q9HAZ1)
# Procedure, shortened: as §1
# PKCtheta = target: T2, PKCtheta (Homo sapiens, UniProt Q04759)
# T2 construct: gene PRKCQ
# Procedure, shortened: as §1
# CK1epsilon = target: T3, CK1epsilon (Homo sapiens, UniProt P49674)
# T3 construct: gene CSNK1E
# Procedure, shortened: as §1
# IRR/INSRR = IRR/INSRR (Homo sapiens, UniProt P14616)
# Procedure, shortened: as §1
# LRRK2 = LRRK2 (Homo sapiens, UniProt Q5S007)
# Procedure, shortened: as §1
# TXK = TXK (Homo sapiens, UniProt P42681)
# Procedure, shortened: as §1
# CK1d = target: T4, CK1d (Homo sapiens, UniProt P48730)
# T4 construct: gene CSNK1D
# Procedure, shortened: as §1
# TBK1 = TBK1 (Homo sapiens, UniProt Q9UHD2)
# Procedure, shortened: as §1
# NEK6 = NEK6 (Homo sapiens, UniProt Q9HC98)
# Procedure, shortened: as §1
# CK1a1L = target: T5, CK1a1L (Homo sapiens, UniProt Q8N752)
# T5 construct: gene CSNK1A1L
# Procedure, shortened: as §1
# MAPKAPK5/PRAK = MAPKAPK5/PRAK (Homo sapiens, UniProt Q8IW41)
# Procedure, shortened: as §1
# PKG1a = target: T6, PKG1a (Homo sapiens, UniProt Q13976)
# T6 construct: gene PRKG1; isoform alpha
# Procedure, shortened: as §1
# PKN1/PRK1 = PKN1/PRK1 (Homo sapiens, UniProt Q16512)
# Procedure, shortened: as §1
# GCK/MAP4K2 = GCK/MAP4K2 (Homo sapiens, UniProt Q12851)
# Procedure, shortened: as §1
# [1] = read-out: % Enzyme Activity (relative to DMSO controls) / TP-0005801 (0.3µM) / Data 1
# [2] = read-out: % Enzyme Activity (relative to DMSO controls) / TP-0005801 (0.3µM) / Data 2
# Chain of PKN1/PRK1 (Q16512 whole entry): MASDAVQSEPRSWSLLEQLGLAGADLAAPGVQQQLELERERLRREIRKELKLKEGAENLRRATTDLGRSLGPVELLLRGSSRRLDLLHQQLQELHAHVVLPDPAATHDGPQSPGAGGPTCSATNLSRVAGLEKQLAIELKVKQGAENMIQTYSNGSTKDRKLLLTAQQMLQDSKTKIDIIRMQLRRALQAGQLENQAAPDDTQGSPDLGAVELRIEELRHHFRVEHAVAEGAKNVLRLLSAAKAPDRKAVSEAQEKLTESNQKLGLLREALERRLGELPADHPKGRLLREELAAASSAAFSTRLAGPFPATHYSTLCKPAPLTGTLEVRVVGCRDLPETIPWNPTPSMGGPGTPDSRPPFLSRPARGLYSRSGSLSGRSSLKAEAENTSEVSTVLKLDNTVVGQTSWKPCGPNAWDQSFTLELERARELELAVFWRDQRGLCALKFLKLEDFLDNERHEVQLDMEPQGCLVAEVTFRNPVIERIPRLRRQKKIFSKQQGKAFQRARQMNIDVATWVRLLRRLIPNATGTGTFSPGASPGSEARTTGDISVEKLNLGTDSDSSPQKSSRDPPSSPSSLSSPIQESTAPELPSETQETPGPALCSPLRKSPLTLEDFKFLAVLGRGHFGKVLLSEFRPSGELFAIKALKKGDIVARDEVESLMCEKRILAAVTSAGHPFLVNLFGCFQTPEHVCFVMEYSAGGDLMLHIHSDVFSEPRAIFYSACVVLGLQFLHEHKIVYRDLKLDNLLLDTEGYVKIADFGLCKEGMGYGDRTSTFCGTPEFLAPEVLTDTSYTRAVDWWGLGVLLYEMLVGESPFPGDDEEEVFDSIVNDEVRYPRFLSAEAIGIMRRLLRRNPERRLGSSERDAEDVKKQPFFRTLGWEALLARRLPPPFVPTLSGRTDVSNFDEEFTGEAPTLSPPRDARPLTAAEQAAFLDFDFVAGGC
# Chain of PAK5 (Q9P286 whole entry): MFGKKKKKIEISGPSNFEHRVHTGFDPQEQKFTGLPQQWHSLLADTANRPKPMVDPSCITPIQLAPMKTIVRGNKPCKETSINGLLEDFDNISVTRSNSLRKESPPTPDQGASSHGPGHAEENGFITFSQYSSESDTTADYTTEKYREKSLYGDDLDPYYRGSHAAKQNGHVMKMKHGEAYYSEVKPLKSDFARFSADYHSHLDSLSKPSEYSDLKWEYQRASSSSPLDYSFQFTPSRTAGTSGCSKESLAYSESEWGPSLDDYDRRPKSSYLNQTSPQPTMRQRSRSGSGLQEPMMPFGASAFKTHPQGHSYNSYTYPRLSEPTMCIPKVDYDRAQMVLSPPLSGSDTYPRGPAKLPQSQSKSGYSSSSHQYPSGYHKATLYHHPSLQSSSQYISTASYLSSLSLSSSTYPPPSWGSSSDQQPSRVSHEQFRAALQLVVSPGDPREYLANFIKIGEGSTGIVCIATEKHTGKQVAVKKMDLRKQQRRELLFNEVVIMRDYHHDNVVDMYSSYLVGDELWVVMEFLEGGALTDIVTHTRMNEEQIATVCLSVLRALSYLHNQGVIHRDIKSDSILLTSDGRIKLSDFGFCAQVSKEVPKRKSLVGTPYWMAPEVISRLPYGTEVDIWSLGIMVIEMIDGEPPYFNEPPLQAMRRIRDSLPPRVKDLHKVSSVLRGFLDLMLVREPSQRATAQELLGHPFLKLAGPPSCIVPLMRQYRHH
# T2 sequence (Q04759 whole entry): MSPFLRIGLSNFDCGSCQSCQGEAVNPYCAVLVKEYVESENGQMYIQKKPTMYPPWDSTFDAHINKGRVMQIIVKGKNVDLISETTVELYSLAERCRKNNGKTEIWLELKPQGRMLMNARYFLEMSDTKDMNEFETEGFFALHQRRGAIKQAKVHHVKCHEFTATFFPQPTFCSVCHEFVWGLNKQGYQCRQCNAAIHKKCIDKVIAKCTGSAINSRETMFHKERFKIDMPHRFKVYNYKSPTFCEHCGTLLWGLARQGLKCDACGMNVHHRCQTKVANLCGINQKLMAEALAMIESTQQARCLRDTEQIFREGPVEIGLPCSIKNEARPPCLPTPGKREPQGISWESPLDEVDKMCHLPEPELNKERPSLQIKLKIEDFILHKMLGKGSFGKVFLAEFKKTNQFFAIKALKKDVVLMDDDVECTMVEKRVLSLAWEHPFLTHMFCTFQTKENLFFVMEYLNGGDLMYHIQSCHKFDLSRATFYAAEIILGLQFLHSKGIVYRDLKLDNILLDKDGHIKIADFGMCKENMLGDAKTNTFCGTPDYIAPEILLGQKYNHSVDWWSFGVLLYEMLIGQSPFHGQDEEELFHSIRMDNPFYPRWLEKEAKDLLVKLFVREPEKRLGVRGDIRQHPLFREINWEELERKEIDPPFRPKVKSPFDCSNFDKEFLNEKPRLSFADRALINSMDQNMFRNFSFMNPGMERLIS
# Chain of COT1/MAP3K8 (P41279 whole entry): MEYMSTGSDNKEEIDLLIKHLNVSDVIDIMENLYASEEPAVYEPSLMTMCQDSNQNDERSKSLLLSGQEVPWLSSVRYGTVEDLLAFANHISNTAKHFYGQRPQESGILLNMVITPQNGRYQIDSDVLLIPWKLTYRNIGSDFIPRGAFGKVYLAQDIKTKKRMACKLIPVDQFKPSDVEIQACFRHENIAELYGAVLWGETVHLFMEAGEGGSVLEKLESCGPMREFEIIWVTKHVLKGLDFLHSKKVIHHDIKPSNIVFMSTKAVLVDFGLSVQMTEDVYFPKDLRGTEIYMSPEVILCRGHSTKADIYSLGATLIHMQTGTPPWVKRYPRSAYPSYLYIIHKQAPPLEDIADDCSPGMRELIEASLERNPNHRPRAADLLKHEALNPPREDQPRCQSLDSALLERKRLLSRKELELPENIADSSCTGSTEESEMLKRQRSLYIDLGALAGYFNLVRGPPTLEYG
# T6 sequence (Q13976 whole entry, canonical isoform): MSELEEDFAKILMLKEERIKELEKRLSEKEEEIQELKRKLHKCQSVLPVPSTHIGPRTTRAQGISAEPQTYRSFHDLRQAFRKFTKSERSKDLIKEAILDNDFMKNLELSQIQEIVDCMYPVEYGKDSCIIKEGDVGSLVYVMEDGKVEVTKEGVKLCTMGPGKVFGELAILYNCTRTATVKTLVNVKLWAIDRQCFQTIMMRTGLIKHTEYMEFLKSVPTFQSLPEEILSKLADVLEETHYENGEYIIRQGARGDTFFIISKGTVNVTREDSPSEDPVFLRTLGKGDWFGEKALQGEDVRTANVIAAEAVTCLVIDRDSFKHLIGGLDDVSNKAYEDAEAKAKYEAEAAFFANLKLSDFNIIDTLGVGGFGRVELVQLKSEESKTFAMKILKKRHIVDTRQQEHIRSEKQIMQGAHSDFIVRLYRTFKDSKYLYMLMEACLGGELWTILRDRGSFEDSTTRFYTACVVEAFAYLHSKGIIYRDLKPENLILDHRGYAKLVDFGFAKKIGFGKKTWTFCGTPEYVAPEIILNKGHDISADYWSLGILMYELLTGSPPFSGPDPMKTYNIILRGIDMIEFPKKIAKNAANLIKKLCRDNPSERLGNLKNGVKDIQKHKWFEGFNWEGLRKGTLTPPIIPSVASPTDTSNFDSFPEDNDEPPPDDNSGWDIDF
# Chain of CLK4 (Q9HAZ1 whole entry): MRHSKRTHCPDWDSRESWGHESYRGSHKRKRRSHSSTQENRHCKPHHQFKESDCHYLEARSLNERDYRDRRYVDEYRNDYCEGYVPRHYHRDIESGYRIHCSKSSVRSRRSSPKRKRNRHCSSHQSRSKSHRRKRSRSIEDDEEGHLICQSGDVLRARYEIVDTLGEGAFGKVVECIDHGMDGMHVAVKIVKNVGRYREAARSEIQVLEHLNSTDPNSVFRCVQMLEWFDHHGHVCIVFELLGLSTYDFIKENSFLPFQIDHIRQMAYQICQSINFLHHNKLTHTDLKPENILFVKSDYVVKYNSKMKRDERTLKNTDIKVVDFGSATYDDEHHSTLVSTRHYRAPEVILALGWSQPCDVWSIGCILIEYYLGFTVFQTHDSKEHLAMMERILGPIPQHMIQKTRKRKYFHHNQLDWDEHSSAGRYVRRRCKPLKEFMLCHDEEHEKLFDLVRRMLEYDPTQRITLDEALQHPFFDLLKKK
# Chain of IRAK4 (Q9NWZ3 whole entry): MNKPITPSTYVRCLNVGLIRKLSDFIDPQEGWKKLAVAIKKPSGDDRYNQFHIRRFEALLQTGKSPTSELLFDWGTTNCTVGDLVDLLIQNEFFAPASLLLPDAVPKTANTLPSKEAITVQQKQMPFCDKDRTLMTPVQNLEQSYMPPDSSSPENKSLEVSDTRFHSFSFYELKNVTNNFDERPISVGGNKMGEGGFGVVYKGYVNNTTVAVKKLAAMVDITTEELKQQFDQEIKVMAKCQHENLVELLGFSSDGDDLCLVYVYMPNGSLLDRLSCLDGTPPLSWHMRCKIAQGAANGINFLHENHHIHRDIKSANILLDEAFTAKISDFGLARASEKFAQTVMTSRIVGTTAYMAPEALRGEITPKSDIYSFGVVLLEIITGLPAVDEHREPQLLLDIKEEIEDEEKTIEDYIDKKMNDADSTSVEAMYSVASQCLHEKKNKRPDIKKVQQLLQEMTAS
# Chain of MAPKAPK5/PRAK (Q8IW41 whole entry): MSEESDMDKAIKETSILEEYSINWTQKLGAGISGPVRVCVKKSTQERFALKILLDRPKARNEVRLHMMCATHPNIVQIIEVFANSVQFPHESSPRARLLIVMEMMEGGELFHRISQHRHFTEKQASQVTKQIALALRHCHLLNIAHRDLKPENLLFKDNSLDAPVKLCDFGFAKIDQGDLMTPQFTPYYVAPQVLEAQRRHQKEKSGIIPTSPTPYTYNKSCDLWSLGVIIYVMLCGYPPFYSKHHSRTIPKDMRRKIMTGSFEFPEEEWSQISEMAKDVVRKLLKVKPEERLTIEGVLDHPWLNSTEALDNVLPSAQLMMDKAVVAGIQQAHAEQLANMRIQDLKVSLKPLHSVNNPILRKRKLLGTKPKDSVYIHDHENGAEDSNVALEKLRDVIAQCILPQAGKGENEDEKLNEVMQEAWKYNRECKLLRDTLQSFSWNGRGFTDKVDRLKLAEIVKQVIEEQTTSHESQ
structure (smiles),measurement,setting,value
COc1cc(N2CCN(C)CC2)c(C)cc1Nc1ncc(Br)c(Nc2cccnc2N(C)C)n1 [TP-5801],remaining activity at 0.3 µM,KHS/MAP4K5; [1],90%
same,remaining activity at 0.3 µM,KHS/MAP4K5; [2],87%
same,remaining activity at 0.3 µM,CK1G3; [1],94.7%
same,remaining activity at 0.3 µM,CK1G3; [2],93.6%
same,remaining activity at 0.3 µM,PAK5; [1],86.5%
same,remaining activity at 0.3 µM,PAK5; [2],85.3%
same,remaining activity at 0.3 µM,ALK6/BMPR1B; [1],97.9%
same,remaining activity at 0.3 µM,ALK6/BMPR1B; [2],97.6%
same,remaining activity at 0.3 µM,COT1/MAP3K8; [1],100%
same,remaining activity at 0.3 µM,COT1/MAP3K8; [2],97.5%
same,remaining activity at 0.3 µM,IRAK4; [1],90.6%
same,remaining activity at 0.3 µM,IRAK4; [2],89.2%
same,remaining activity at 0.3 µM,CLK4; [1],30.4%
same,remaining activity at 0.3 µM,CLK4; [2],30.2%
same,remaining activity at 0.3 µM,PKCtheta; [1],91.3%
same,remaining activity at 0.3 µM,PKCtheta; [2],90.3%
same,remaining activity at 0.3 µM,CK1epsilon; [1],96.5%
same,remaining activity at 0.3 µM,CK1epsilon; [2],94.7%
same,remaining activity at 0.3 µM,IRR/INSRR; [1],66.7%
same,remaining activity at 0.3 µM,IRR/INSRR; [2],65.2%
same,remaining activity at 0.3 µM,LRRK2; [1],8.89%
same,remaining activity at 0.3 µM,LRRK2; [2],8.22%
same,remaining activity at 0.3 µM,TXK; [1],114%
same,remaining activity at 0.3 µM,TXK; [2],112%
same,remaining activity at 0.3 µM,CK1d; [1],101%
same,remaining activity at 0.3 µM,CK1d; [2],98.4%
same,remaining activity at 0.3 µM,TBK1; [1],97.8%
same,remaining activity at 0.3 µM,TBK1; [2],96.4%
same,remaining activity at 0.3 µM,NEK6; [1],95.2%
same,remaining activity at 0.3 µM,NEK6; [2],91.5%
same,remaining activity at 0.3 µM,CK1a1L; [1],101%
same,remaining activity at 0.3 µM,CK1a1L; [2],99.8%
same,remaining activity at 0.3 µM,MAPKAPK5/PRAK; [1],116%
same,remaining activity at 0.3 µM,MAPKAPK5/PRAK; [2],107%
same,remaining activity at 0.3 µM,PKG1a; [1],87.6%
same,remaining activity at 0.3 µM,PKG1a; [2],85.6%
same,remaining activity at 0.3 µM,PKN1/PRK1; [1],91.8%
same,remaining activity at 0.3 µM,PKN1/PRK1; [2],90.3%
same,remaining activity at 0.3 µM,GCK/MAP4K2; [1],76.1%
same,remaining activity at 0.3 µM,GCK/MAP4K2; [2],73.9%
